Test results from patent publication US12331068B2, “Compositions and methods for inhibiting CD73” (Peloton Therapeutics, Inc., priority 2018, dated 2025).
Like-named read-outs stand apart in the source and are kept apart here.

Key:
Human CD73 = target: T1, Human CD73 (Homo sapiens, UniProt P21589); experiment: CD73 Enzyme Assay (EnzChek PNP/MESG kinetic readout of AMP hydrolysis); type: biochemical; settings: 0.25 nM hCD73, 25 μM AMP; read-out: CD73 Enzyme Assay IC50
T1 construct: purchased R&D Systems; host or cells: CHO cells
T1 sequence (P21589 27-549): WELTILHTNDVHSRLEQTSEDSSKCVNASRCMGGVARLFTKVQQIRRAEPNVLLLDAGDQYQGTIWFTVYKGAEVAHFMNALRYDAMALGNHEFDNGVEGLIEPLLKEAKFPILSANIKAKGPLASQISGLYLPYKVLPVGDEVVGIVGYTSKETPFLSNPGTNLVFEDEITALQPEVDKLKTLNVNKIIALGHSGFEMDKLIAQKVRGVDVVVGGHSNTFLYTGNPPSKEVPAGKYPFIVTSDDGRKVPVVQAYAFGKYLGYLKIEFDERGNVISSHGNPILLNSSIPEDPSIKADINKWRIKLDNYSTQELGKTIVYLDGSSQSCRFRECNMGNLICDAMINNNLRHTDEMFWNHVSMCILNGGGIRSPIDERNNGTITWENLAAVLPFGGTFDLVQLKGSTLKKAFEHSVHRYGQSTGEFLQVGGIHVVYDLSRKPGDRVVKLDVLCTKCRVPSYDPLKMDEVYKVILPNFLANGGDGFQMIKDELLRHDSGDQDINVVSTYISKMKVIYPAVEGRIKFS
In short: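 Compounds tested as 15-point, 3-fold dilution series (300 μM to 0.0002 μM) in DMSO. Kinetic absorbance at 360 nm read every minute for 10–20 min, initial velocity taken from the linear portion.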

[1] = target: T2, CD73 on U138 human neuroglioma cells (Homo sapiens, UniProt P21589); experiment: CD73 Cell-Based Assay (inorganic phosphate from AMP, malachite green); settings: AMP substrate, 2 hours at 37° C.
T2 construct: U138 cells were obtained from ATCC and cultured in DMEM with 10% FBS; host or cells: U138 human neuroglioma cells
T2 sequence (P21589 27-549): T1 sequence (P21589 27-549)
In short: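 U138 cells, seeded the day before at 2500 per well, were washed and given AMP substrate (200 μM in the added mixture, before dilution into the buffer) together with compound. After 2 h at 37 °C in 5% CO2, inorganic phosphate in the supernatant was measured with malachite green.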

[2] = read-out: CD73 Cell-Based assay IC50

Compound | IC50 (Human CD73) [µM] | IC50 [1, 2] [µM] | IC50 ([1]; read-out: IC50) [µM]
N#Cc1c(Cl)nc2c(ncn2[C@@H]2O[C@H](COCP(=O)(O)O)[C@@H](O)[C@H]2O)c1NC1CC2CC2C1 (some centres unmarked) [Compound 56] | < 0.01 | < 0.01 | 
N#Cc1c(Cl)nc2c(ccn2[C@@H]2O[C@H](COCP(=O)(O)O)[C@@H](O)[C@H]2O)c1N1CC[C@@H](F)C1 [Compound 66] | < 0.01 | < 0.01 | 
N#Cc1c(Cl)nc2c(ccn2[C@@H]2O[C@H](CS(=O)(=O)CP(=O)(O)O)[C@@H](O)[C@H]2O)c1N[C@H]1CCC(F)(F)C1 [Compound 5] | < 0.01 | < 0.01 | 
N#Cc1c(Cl)nc2c(cnn2[C@@H]2O[C@H](COCP(=O)(O)O)[C@@H](O)[C@H]2O)c1NC1CC(F)C1 (some centres unmarked) [Compound 89] | < 0.01 | < 0.01 | 
N#Cc1c(Cl)nc2c(ncn2[C@@H]2O[C@H](COCP(=O)(O)O)[C@@H](O)[C@H]2O)c1N1CC(F)(F)C1 [Compound 82] | < 0.01 | < 0.01 | 
N#Cc1c(Cl)nc2c(ccn2[C@@H]2O[C@H](CS(=O)(=O)CP(=O)(O)O)[C@@H](O)[C@H]2O)c1NC1CCCC1 [Compound 25, (((((2S,3S,4R,5R)-5-(6-chloro-5-cyano-4-(cyclopentylamino)-1H-pyrrolo[2,3-b]pyridin-1-yl)-3,4-dihydroxytetrahydrofuran-2-yl)methyl)sulfonyl)methyl)phosphonic acid] | < 0.01 | < 0.01 | 0.0001
N#Cc1c(Cl)nc2c(ncn2[C@@H]2O[C@H](COP(=O)(O)CP(=O)(O)O)[C@@H](O)[C@H]2O)c1N1CC2CC2C1 (some centres unmarked) [Compound 63] | < 0.01 | < 0.01 | 
N#Cc1c(Cl)nc2c(ccn2[C@@H]2O[C@H](COCP(=O)(O)O)[C@@H](O)[C@H]2O)c1N1CC2CCCC2C1 (some centres unmarked) [Compound 11] | < 0.01 | < 0.01 | 
N#Cc1c(Cl)nc2c(cnn2[C@@H]2O[C@H](COCP(=O)(O)O)[C@@H](O)[C@H]2O)c1N1CC(F)(F)C1 [Compound 78] | < 0.01 | < 0.01 | 
N#Cc1c(Cl)nc2c(ncn2[C@@H]2O[C@H](COCP(=O)(O)O)[C@@H](O)[C@H]2O)c1N1CC[C@@H](F)C1 [Compound 83] | < 0.01 | < 0.01 | 

Next, values leading:

IC50 (Human CD73) [µM] | IC50 [1, 2] [µM] | IC50 ([1]; read-out: IC50) [µM] | Compound
< 0.01 | < 0.01 | 0.0014 | O=P(O)(O)CS(=O)(=O)C[C@H]1O[C@@H](n2ccc3c(NC4CCCC4)cc(Cl)nc32)[C@H](O)[C@@H]1O [Compound 323]
< 0.01 | < 0.01 |  | C[C@H](Nc1c(C#N)c(Cl)nc2c1ncn2[C@@H]1O[C@H](COP(=O)(O)CP(=O)(O)O)[C@@H](O)[C@@H]1F)c1ccc(F)cc1 [Compound 245]
< 0.01 | < 0.01 |  | N#Cc1c(Cl)nc2c(cnn2[C@@H]2O[C@H](COCP(=O)(O)O)[C@@H](O)[C@H]2O)c1N1C[C@@H](F)[C@@H](F)C1 [Compound 91, ((((2R,3S,4R,5R)-5-(6-chloro-5-cyano-4-((3S,4R)-3,4-difluoropyrrolidin-1-yl)-1H-pyrazolo[3,4-b]pyridin-1-yl)-3,4-dihydroxytetrahydrofuran-2-yl)methoxy)methyl)phosphonic acid]
< 0.01 | < 0.01 |  | N#Cc1c(Cl)nc2c(cnn2[C@@H]2O[C@H](CS(=O)(=O)CP(=O)(O)O)[C@@H](O)[C@H]2O)c1N[C@H]1C[C@@H](F)C1 [Compound 150]
< 0.01 | < 0.01 |  | N#Cc1c(Cl)nc2c(ncn2[C@@H]2O[C@H](CS(=O)(=O)CP(=O)(O)O)[C@@H](O)[C@H]2O)c1NC1CC2CC2C1 (some centres unmarked) [Compound 127]
< 0.01 | < 0.01 |  | N#Cc1nc2c(ccn2[C@@H]2O[C@H](COP(=O)(O)CP(=O)(O)O)[C@@H](O)[C@H]2O)c(NC2CCCC2)c1Cl [Compound 211]
< 0.01 | < 0.01 |  | N#Cc1c(Cl)nc2c(ccn2[C@@H]2O[C@H](COP(=O)(O)CP(=O)(O)O)[C@@H](O)[C@@H]2F)c1NC1CC(F)(F)C1 [Compound 228]
< 0.01 | < 0.01 |  | C[C@H](Nc1c(C#N)c(Cl)nc2c1ccn2[C@@H]1O[C@H](COP(=O)(O)CP(=O)(O)O)[C@@H](O)[C@H]1O)c1ccc(C#N)cc1 [Compound 223]
